Source: patent US10676468B2, “N-(3-heteroarylaryl)-4-arylarylcarboxamides and analogs as hedgehog pathway inhibitors and use thereof” (IMPACT Therapeutics, Inc., priority 2012, dated 2020)
Counter-ions that a name gives are not always drawn.

What follows are molecules tested on Hedgehog Signaling Pathway (assay: SHH-induced differentiation of C3H10T1/2 cells into osteoblastic cells, intracellular alkaline phosphatase activity). Conditions: Mus musculus, C3H 10T1/2, 120 h, 10 nM SHH-N, 5 days, alkaline phosphatase activity (OD405), read-out: IC50 values of compounds that inhibit Hh pathway.
Assay type: cell-based, mouse
Method in brief: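 Hedgehog pathway inhibition was taken as loss of SHH-driven osteoblastic differentiation. Test compound (10 nM–10 μM) plus SHH-N (10 nM) was applied to C3H10T1/2 cells for 5 days, then lysate phosphatase turnover was measured as the 30-min OD405 change at 37 °C. IC50 was fitted from activity versus log dose.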
An IC50 greater than 10000 nM was found for `Cc1cc(-c2ccc(C(F)(F)F)cc2)ccc1C(=O)Nc1ccc(Cl)c(-c2nnc3cnccn23)c1` [Example 54, N-(3-([1,2,4]triazolo[4,3-a]pyrazin-3-yl)-4-chlorophenyl)-3-methyl-4′-(trifluoromethyl)biphenyl-4-carboxamide] in this work.

These molecules were tested on Hedgehog Signaling Pathway (assay: Gli-Luc reporter gene cell assay in C3H10T1/2/Gli-Luc cells stimulated with Shh). Conditions: 30 nM Shh, 24 hours, luciferase activity (RLU), read-out: IC50 values of compounds that inhibit Hh pathway.
Assay type: cell-based, mouse
Text: The Application of Reporter Gene Cell Assay for the Determination of the Inhibitory Activity of N-(3-(1H-benzo[d]imidazol-2-yl)-4-chlorophenyl)-2-methyl-4-((2S,6R)-2,6-dimethylmorpholino) benzamide and Analogs on Hedgehog Signaling Pathway
The binding of Sonic hedgehog (Shh) to its receptor Patched 1 initiates numerous intracellular signal transmission, and leads to the nuclear translocation of Gli and the elevated transcription of Gli target genes. When C3H10T1/2 cells are stably transfected with the Gli-Luc plasmids containing the luciferase gene under the control of Gli response element and stimulated with Shh, the expression of luciferase is elevated. Luciferase activity is indicative of the hedgehog signaling pathway activity. Therefore, the inhibitory activity of compounds on hedgehog signaling pathway can be measured using the luciferase activity when the transfected cells are stimulated with Shh.
The day before experiment, C3H10T1/2/Gli-Luc cells in log phase of growth were seeded into 96 well plate at a density of 20000 cells per well. The cells were maintained in DMEM (Hyclone) supplemented with 10% FBS (Hyclone) and incubated at 37° C. with 5% CO2 overnight. The compounds to be examined were diluted into 7 different concentrations by series of dilutions (⅓ and 1/10), and the eighth point of concentration is the DMSO control. Those solutions were diluted 100-fold in the fresh growth medium. The cells were taken out of the incubator and the medium of cultured cells were removed. Then, each well was added in an orderly manner with 80 μL of fresh growth medium, 20 μL of medium pre-dilution of positive compound and compounds to be tested, as well as 100 μL of growth medium containing 30 nM of Shh. The cells are returned to the incubator, and incubated for 24 hours.
Measurement of luciferase activity: After taking the 96 well plate out of the incubator, the supernatants were discarded and the cells were washed twice with PBS. Thereafter, each well was dispensed with 20 μL of lysis buffer (Promega E1531), and the plate was shaken for 30 min at room temperature. Following transferring 5 μL of cell lysate into 384 well plate (Greiner 781074), adding 25 μL of luciferase reaction buffer (Promega E1501) into each well and mixing the plate, the relative light unit (RLU) was immediately captured by VarioSkan Flash.
The data were analyzed with Prism 5 software (GraphPad). The relative light unit (RLU) was plotted against the log concentration of testing compound, and the obtained plot was fitted with non-linear curve fitting equation to calculate IC50 values. The curve fitting equation is Y (RLU)=Bottom+(Top−Bottom)/(1+10^((X−Log IC50))). X is the logarithm of concentration. Y is the measure of relative light unit (RLU).
The calculated IC50 value is a measurement of the inhibitory activity of compound to Hh pathway.
An IC50 of 0.24 nM was found for `C[C@@H]1CN(c2ccc(C(=O)Nc3ccc(Cl)c(-c4ncc(-c5ccsc5)[nH]4)c3)c(C(F)(F)F)c2)C[C@H](C)N1C` [Example 164, N-(3-(5-(thiophen-3-yl)-1H-imidazol-2-yl)-4-chlorophenyl)-2-(trifluoromethyl)-4-((3S,5R)-3,4,5-trimethylpiperazin-1-yl) benzamide Dihydrochloride] in this work. An IC50 of 0.28 nM was found for `C[C@@H]1CN(c2ccc(C(=O)Nc3ccc(Cl)c(-c4nc5cscc5[nH]4)c3)c(C(F)(F)F)c2)C[C@H](C)N1C` [Example 200, N-(3-(1H-thieno[3,4-d]imidazol-2-yl)-4-chlorophenyl)-2-(trifluoromethyl)-4-((3S,5R)-3,4,5-trimethylpiperazin-1-yl) Benzamide] in this work.

Same assay, conditions: Mus musculus, C3H 10T1/2, 24 h, 30 nM Shh, luciferase activity (RLU), read-out: IC50 values of compounds that inhibit Hh pathway
An IC50 of 0.63 nM was found for `CCN1[C@H](C)CN(c2ccc(C(=O)Nc3ccc(Cl)c(-c4ncc(C5CC5)[nH]4)c3)c(Cl)c2)C[C@@H]1C` [Example 194, N-(3-(5-cyclopropyl-1H-imidazol-2-yl)-4-chlorophenyl)-2-chloro-4-((3S,5R)-4-ethyl-3,5-dimethylpiperazin-1-yl)benzamide Dihydrochloride] in this work. An IC50 of 0.5 nM was found for `CCN1[C@H](C)CN(c2ccc(C(=O)Nc3ccc(Cl)c(-c4ncc(-c5ccco5)[nH]4)c3)c(Cl)c2)C[C@@H]1C` [Example 150, N-(3-(5-(furan-2-yl)-1H-imidazol-2-yl)-4-chlorophenyl)-2-chloro-4-((3S,5R)-4-ethyl-3,5-dimethylpiperazin-1-yl)benzamide] in this work. An IC50 of 0.34 nM was found for `CC(C)c1cnc(-c2cc(NC(=O)c3cc(F)c(N4C[C@@H](C)N(C)[C@@H](C)C4)cc3Cl)ccc2Cl)[nH]1` [Example 191, N-(3-(5-isopropyl-1H-imidazol-2-yl)-4-chlorophenyl)-2-chloro-5-fluoro-4-((3S,5R)-3,4,5-trimethylpiperazin-1-yl)benzamide Dihydrochloride] in this work. An IC50 of 2 nM was found for `Cc1ccc(-c2cnc(-c3cc(NC(=O)c4ccc(N5C[C@@H](C)N(C)[C@@H](C)C5)cc4Cl)ccc3Cl)[nH]2)o1` [Example 151, N-(3-(5-(5-methylfuran-2-yl)-1H-imidazol-2-yl)-4-chlorophenyl)-2-chloro-4-((3S,5R)-3,4,5-trimethylpiperazin-1-yl)benzamide] in this work. An IC50 of 0.2 nM was found for `Cc1c(C(=O)Nc2ccc(Cl)c(-c3ncc(C(C)C)[nH]3)c2)ccc(N2C[C@@H](C)N(C)[C@@H](C)C2)c1F` [Example 190, N-(3-(5-isopropyl-1H-imidazol-2-yl)-4-chlorophenyl)-2-methyl-3-fluoro-4-((3S,5R)-3,4,5-trimethylpiperazin-1-yl)benzamide Dihydrochloride] in this work. An IC50 of 3.4 nM was found for `Cc1cnc(-c2cc(NC(=O)c3ccc(N4C[C@@H](C)N(C)[C@@H](C)C4)cc3C)ccc2Cl)[nH]1` [Example 186, N-(3-(5-methyl-1H-imidazol-2-yl)-4-chlorophenyl)-2-methyl-4-((3S,5R)-3,4,5-trimethylpiperazin-1-yl)benzamide Dihydrochloride] in this work. An IC50 of 1.2 nM was found for `Cc1ccc(-c2cnc(-c3cc(NC(=O)c4ccc(N5C[C@@H](C)N(C)[C@@H](C)C5)cc4C)ccc3Cl)[nH]2)o1` [Example 152, N-(3-(5-(5-methylfuran-2-yl)-1H-imidazol-2-yl)-4-chlorophenyl)-2-methyl-4-((3S,5R)-3,4,5-trimethylpiperazin-1-yl)benzamide] in this work. An IC50 of 0.52 nM was found for `CCN1[C@H](C)CN(c2ccc(C(=O)Nc3ccc(Cl)c(-c4ncc(C(C)C)[nH]4)c3)c(Cl)c2)C[C@@H]1C` [Example 192, N-(3-(5-isopropyl-1H-imidazol-2-yl)-4-chlorophenyl)-2-chloro-4-((3S,5R)-4-ethyl-3,5-dimethylpiperazin-1-yl)benzamide Dihydrochloride] in this work. An IC50 of 0.56 nM was found for `C[C@@H]1CN(c2cc(Cl)c(C(=O)Nc3ccc(Cl)c(-c4ncc(C5CC5)[nH]4)c3)cc2F)C[C@H](C)N1C` [Example 193, N-(3-(5-cyclopropyl-1H-imidazol-2-yl)-4-chlorophenyl)-2-chloro-5-fluoro-4-((3S,5R)-3,4,5-trimethylpiperazin-1-yl)benzamide Dihydrochloride] in this work. An IC50 of 0.3 nM was found for `C[C@@H]1CN(c2ccc(C(=O)Nc3ccc(Cl)c(-c4ncc(-c5cccn5C)[nH]4)c3)c(Cl)c2)C[C@H](C)N1C` [Example 162, N-(3-(5-(1-methyl-1H-pyrrol-2-yl)-1H-imidazol-2-yl)-4-chlorophenyl)-2-chloro-4-((3S,5R)-3,4,5-trimethylpiperazin-1-yl)benzamide] in this work. An IC50 of 0.38 nM was found for `CCc1cnc(-c2cc(NC(=O)c3ccc(N4C[C@@H](C)N(C)[C@@H](C)C4)c(F)c3C)ccc2Cl)[nH]1` [Example 168, N-(3-(5-ethyl-1H-imidazol-2-yl)-4-chlorophenyl)-2-methyl-3-fluoro-4-((3S,5R)-3,4,5-trimethylpiperazin-1-yl)benzamide] in this work. An IC50 of 0.67 nM was found for `CCc1cnc(-c2cc(NC(=O)c3ccc(N4C[C@@H](C)N(CC)[C@@H](C)C4)cc3Cl)ccc2Cl)[nH]1` [Example 169, N-(3-(5-ethyl-1H-imidazol-2-yl)-4-chlorophenyl)-2-chloro-4-((3S,5R)-4-ethyl-3,5-dimethylpiperazin-1-yl)benzamide] in this work. An IC50 of 28 nM was found for `CCc1cnc(-c2cc(NC(=O)c3ccc(N4C[C@@H](C)N(C)[C@@H](C)C4)cc3C(F)(F)F)ccc2Cl)[nH]1` [Example 167, N-(3-(5-ethyl-1H-imidazol-2-yl)-4-chlorophenyl)-2-(trifluoromethyl)-4-((3S,5R)-3,4,5-trimethylpiperazin-1-yl)benzamide] in this work. An IC50 of 0.28 nM was found for `C[C@@H]1CN(c2cc(Cl)c(C(=O)Nc3ccc(Cl)c(-c4ncc(-c5ccsc5)[nH]4)c3)cc2F)C[C@H](C)N1C` [Example 142, N-(3-(5-(thiophen-3-yl)-1H-imidazol-2-yl)-4-chlorophenyl)-2-chloro-5-fluoro-4-((3S,5R)-3,4,5-trimethylpiperazin-1-yl)benzamide] in this work. An IC50 of 0.46 nM was found for `CC(C)c1cnc(-c2cc(NC(=O)c3ccc(N4C[C@@H](C)N(C)[C@@H](C)C4)cc3C(F)(F)F)ccc2Cl)[nH]1` [Example 171, N-(3-(5-isopropyl-1H-imidazol-2-yl)-4-chlorophenyl)-2-(trifluoro-methyl)-4-((3S,5R)-3,4,5-trimethylpiperazin-1-yl)benzamide] in this work. An IC50 of 0.45 nM was found for `CCc1cnc(-c2cc(NC(=O)c3ccc(N4C[C@@H](C)N(C)[C@@H](C)C4)cc3C)ccc2Cl)[nH]1` [Example 187, N-(3-(5-ethyl-1H-imidazol-2-yl)-4-chlorophenyl)-2-methyl-4-((3S,5R)-3,4,5-trimethylpiperazin-1-yl)benzamide Dihydrochloride] in this work. An IC50 of 0.19 nM was found for `CCN1[C@H](C)CN(c2ccc(C(=O)Nc3ccc(Cl)c(-c4ncc(-c5ccsc5)[nH]4)c3)c(Cl)c2)C[C@@H]1C` [Example 165, N-(3-(5-(thiophen-3-yl)-1H-imidazol-2-yl)-4-chlorophenyl)-2-chloro-4-((3S,5R)-4-ethyl-3,5-dimethylpiperazin-1-yl)benzamide Dihydrochloride] in this work.

The molecules below were run on Hedgehog Signaling Pathway (assay: SAG-induced differentiation of C3H10T1/2 cells into osteoblastic cells, intracellular alkaline phosphatase activity). Conditions: Mus musculus, C3H 10T1/2, 120 h, 1 μM SAG, 5 days, alkaline phosphatase activity (OD405), read-out: IC50 values of compounds that inhibit Hh pathway.
Assay type: cell-based, mouse
Method in brief: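 Mouse C3H10T1/2 cells were induced with SAG and exposed to compound (10 μM to 1 nM) for 5 days at 37 °C. Cells were lysed in 0.2% Triton, and alkaline phosphatase activity was read as OD405 over 30 min at 37 °C in pH 9.8 substrate buffer. IC50 came from a non-linear fit of background-subtracted OD405 against log concentration.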
An IC50 greater than 10000 nM was found for `Cc1cc(-c2ccc(C(F)(F)F)cc2)ccc1C(=O)Nc1ccc(Cl)c(-c2nnc3cnccn23)c1` [Example 54, N-(3-([1,2,4]triazolo[4,3-a]pyrazin-3-yl)-4-chlorophenyl)-3-methyl-4′-(trifluoromethyl)biphenyl-4-carboxamide] in this work.
